{"source": "patent US20240285627A1", "about": "“DRUG COMBINATION OF FAK INHIBITOR AND IMMUNOGENIC CELL DEATH INDUCER AND USE THEREOF” (INXMED (NANJING) CO., LTD., priority 2022, published 2024)", "key": {"[1]": {"assay": "Weight change, survival and clinical status in the CT26 allograft model (Example 9)", "assay_type": "in vivo", "method": "The health status and death of animals was monitored every day. Routine examination included observing the effects of tumor growth and drug treatment on the daily behavior of animals, such as behavioral activities, food and water intake (visual observation only), body weight change, appearance signs or other abnormal conditions. Based on the number of animals in each group, the death number and side effects of animals in the group were recorded.\nThe assay was carried out according to the administration scheme. During the assay, animal activities such as eating and drinking were observed daily, and animal weight was recorded 2˜3 times a week. […] The body weight of the three-drug combined group of MRTX1133+IN10018+TIGIT (5+25+3 mg/kg) group changed from 19.5 g on the day of group administration (Day 0) to 21.2 g on the 16th day, and the change rate of body weight was […]."}, "[2]": {"tested_on": "KPL tumor", "assay": "Anti-tumor efficacy in KPL model in C57BL/6 mice (Example 12)", "assay_type": "in vivo", "details": "MRTX133 5 mg/kg IP BID, ANTI MOUSE PD-1 10 mg/kg IP BIW, IN10018 25 mg/kg PO QD", "method": "45 female C57BL/6 mice, 6-8 weeks old and 19 to 25 g in weight, were used in this study. The mice, marked by ear coding, were kept in Individual Ventilation Cages at constant temperature (20-26° C.) and humidity (40%-70%) with 3 animals in each cage. Animals had free access to irradiation sterilized dry granule food (Keao Xieli (Tianjin) Feed Co., Ltd) and sterile drinking water during the entire study period.\nKPL cells were maintained in vitro in RPMI-1640 medium supplemented with 10% FBS and 1% P.S. at 37° C. in an atmosphere of 5% CO2 in air. The tumor cells were routinely sub-cultured three times weekly. KPL cells growing in an exponential growth phase were resuspended in PBS and adjusted concentration to 2×10^6/mL for tumor injection.\nEach mouse was injected subcutaneously at the right flank with 0.1 mL KPL cell suspension (0.2×10^6) for tumor development. When tumor reach around 60 mm^3 on the 7th day after cell injection, mice were randomly grouped according to tumor volume, followed by drug administration. The day of grouping was defined as day 0.\nThe major endpoint is to see if the tumor growth can be delay or mice can be cured. Tumor sizes were measured three times weekly in two dimensions using a caliper (No. 105688, sylvac Dantsin), and the volume was expressed in mm^3 using the formula: V=0.5×a×b^2 (a, long diameters; b, short diameters). The tumor sizes were then used for the calculations of T/C (%) values. T/C (%) was calculated using the formula: T/C (%)=(Ti−T0)/(Vi−V0)×100%, Ti was the average tumor volume of a treatment group on a given day, T0 was the average tumor volume of the treatment group on the first day of treatment, Vi was the average tumor volume of the vehicle control group on the same day with Ti, and V0 was the average tumor volume of the vehicle group on the first day of treatment.\nTGI was calculated for each group using the formula: TGI (%)=100%-T/C (%).\nEfficacy study was euthanized on D28 after treatment according to requirement, tumors were collected and photographed, tumor weight were recorded meanwhile. Tumors were selected from each group and stored in 10% Formalin for the following research.\nSummary statistics, including mean and the standard error of the mean (SEM), are provided for the tumor volume of each group at each time point. Statistical analysis of difference in tumor volume and tumor weight versus Vehicle group were conducted on the data obtained at each time point. T-test was performed to compare tumor volume among groups. A value of p<0.05 was considered to be statistically significant."}, "[3]": {"tested_on": "Mouse colon cancer CT26 cells", "assay": "Proliferation of CT26 cells, CCK8, MRTX1133 with or without IN10018 (Example 3)", "assay_type": "cell-based", "details": "72 hours, combination group: 5 μM IN10018 added to each well", "method": "Mouse colon cancer CT26 cells (Insitute of Biochemistry and Cell Biology) were cultured with RPMI-1640 (Shanghai Basalmedia, classification number: L210KJ, batch number: F210916)+10% FBS (Gibco, classification number: 10099-141c, batch number: 2158737cp) and passaged twice. When the cells were in good condition, the culture solution was placed in a 96-well plate with 3000 cells/well. After the cells were spread for 24 hours, a culture medium containing MRTX1133 (SuperLan Chemical Co., Ltd., classification number: P2621928-55-8, batch number: 131005) was added. 10 drug action concentrations were set, wherein the first concentration was 30 μM, which was serially diluted 5 times, and the last concentration was a control with a drug concentration of 0. Each drug concentration was set in triplicate. At the same time, another group of cells was established with the same drug concentration as the above method. The difference was that 5 μM IN10018 was added to each well. The drugs were mixed and the mixture was cultured in a 5% CO2 incubator at 37° C. for 72 hours.\nAfter 72 hours of drug action, the cells were observed under a microscope, and 10 μl of CCK8 detection reagent (Cellorlab, classification number: CX001M, batch number: 2571100) was added to each well. […] Then the plate was read with a microplate reader OD450 ([…])."}, "[4]": {"assay": "Body weight / tolerability of KPL tumor-bearing mice (Example 12)", "assay_type": "in vivo", "details": "KPL tumor-bearing C57BL/6 mice", "method": "All the procedures related to animal handling, care and the treatment in the study were conducted according to guidelines approved by the Institutional Animal Care and Use Committee (IACUC) following the guidance of the Association for Assessment and Accreditation of Laboratory Animal Care (AAALAC). At the time of routine monitoring, the animals were daily checked for any effects of tumor growth and treatments on normal behavior such as mobility, food and water consumption (by looking only), body weight gain/loss (body weights were measured every two days or twice weekly), eye/hair matting and any other abnormal effects as stated in the protocol. Death and observed clinical signs were recorded on the basis of the numbers of animals within each subset.\nThe body weight of KPL tumor-bearing mice was monitored regularly as an indirect index of toxicity."}}, "note": "pIC50: −log10 of the molar value. Several values for one entry are separate records, joined by “and”; a condition that tells them apart may be missing. Identical values can stand only once."}
{"smiles": "C#Cc1c(F)ccc2cc(O)cc(-c3ncc4c(N5CC6CCC(C5)N6)nc(OC[C@@]56CCCN5C[C@H](F)C6)nc4c3F)c12", "note": "[MRTX1133]", "values": [{"measurement": "Weight on Day 0", "setting": "[1]; Day 0, at grouping, mean ± SD", "result": "19.4 g and 19.4 ± 0.8 g"}, {"measurement": "Weight change rate (%)", "setting": "[1]; Day 16 vs Day 0", "result": 15.1, "unit": "%"}, {"measurement": "Weight on Day 14/16", "setting": "[1]; administration groups: 16th day after group administration, mean ± SD", "result": "22.3 g and 22.3 ± 0.8 g"}, {"measurement": "Animal survival", "setting": "[1]; number of animals alive on day 0/number alive on day 16", "result": "6/6"}, {"measurement": "T/C (%)", "setting": "[2]; Day 3 after treatment", "result": 15.72, "unit": "%"}, {"measurement": "TGI (%)", "setting": "[2]; Day 3 after treatment", "result": 84.28, "unit": "%"}, {"measurement": "T/C (%)", "setting": "[2]; Day 7 after treatment", "result": "−50.80", "unit": "%"}, {"measurement": "TGI (%)", "setting": "[2]; Day 7 after treatment", "result": 150.80, "unit": "%"}, {"measurement": "T/C (%)", "setting": "[2]; Day 10 after treatment", "result": 2.69, "unit": "%"}, {"measurement": "TGI (%)", "setting": "[2]; Day 10 after treatment", "result": 97.31, "unit": "%"}, {"measurement": "T/C (%)", "setting": "[2]; Day 14 after treatment", "result": 30.94, "unit": "%"}, {"measurement": "TGI (%)", "setting": "[2]; Day 14 after treatment", "result": 69.06, "unit": "%"}, {"measurement": "T/C (%)", "setting": "[2]; Day 17 after treatment", "result": 56.17, "unit": "%"}, {"measurement": "TGI (%)", "setting": "[2]; Day 17 after treatment", "result": 43.83, "unit": "%"}, {"measurement": "T/C (%)", "setting": "[2]; Day 21 after treatment", "result": 58.22, "unit": "%"}, {"measurement": "TGI (%)", "setting": "[2]; Day 21 after treatment", "result": 41.78, "unit": "%"}, {"measurement": "T/C (%)", "setting": "[2]; Day 24 after treatment", "result": 61.87, "unit": "%"}, {"measurement": "TGI (%)", "setting": "[2]; Day 24 after treatment", "result": 38.13, "unit": "%"}, {"measurement": "T/C (%)", "setting": "[2]; Day 28 after treatment", "result": 71.43, "unit": "%"}, {"measurement": "TGI (%)", "setting": "[2]; Day 28 after treatment", "result": 28.57, "unit": "%"}, {"measurement": "tumor volume", "setting": "[2]; day 28", "result": 579.34, "unit": "mm^3"}, {"measurement": "pIC50", "setting": "[3]", "result": 6.55}, {"measurement": "tolerability in KPL model", "setting": "[4]", "result": "well-tolerated"}]}
